Where two headings read alike, the source gives them in different places.
How the values were obtained:
Test in all cases: microbe, parasite or virus in culture
Type in all cases: cell-based, Hepatitis C virus (HCV)
[1] = test system: HCV replicon 1AY93H; conditions: Replicon Assay A
Method in brief: (§1)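 HCV RNA levels were calculated from Ct values (minus intercept, divided by slope) of a Neo primer/probe standard curve, with cyclophilin quantified the same way. Cells were seeded at 2000/well and incubated with compound for 3 days in 5% serum and 0.5% DMSO.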

[2] = test system: HCV replicon 2B; conditions: Replicon Assay A
Method in brief: as §1

[3] = test system: HCV replicon 1A; conditions: Replicon Assay A
Method in brief: as §1

[4] = test system: HCV replicon 1B; conditions: Replicon Assay B
[5] = test system: HCV replicon 1AQ30D; conditions: Replicon Assay B
[6] = read-out: 1A Y93H IC50, HCV replicon 1A Y93H
[7] = read-out: 2B IC50, HCV replicon 2B
[8] = read-out: 1A Q30D IC50, HCV replicon 1A Q30D
[9] = Hepatitis C virus, HCV replicon 1B
[10] = Hepatitis C virus, read-out: 1A Q30D IC50, HCV replicon 1A Q30D
[11] = read-out: 1A Y93H IC50, replicon 1AY93H
[12] = Hepatitis C virus, read-out: 2B IC50 (nM), replicon 2B
[13] = Hepatitis C virus, read-out: 1A Q30D IC50 (nM), replicon 1AQ30D
[14] = read-out: 1A Q30D IC50, replicon 1AQ30D
[15] = Hepatitis C virus, read-out: 1A Y93H IC50 (nM), replicon 1AY93H

Compound: CCc1ccc(C2Oc3cc(-c4cnc([C@@H]5CCCN5C(=O)[C@@H](NC(=O)OC)C(C)C)[nH]4)ccc3-c3c(F)c4cc(-c5cnc([C@@H]6CCCN6C(=O)C(NC(=O)OC)C6C[C@@H](C)O[C@@H](C)C6)[nH]5)ccc4n32)s1 (single isomer, unassigned) [Compound 635]
- IC50 [1, 6]: 0.0272 nM
- IC50 [2, 7]: 0.0225 nM
- IC50 ([3]; HCV replicon 1A): 0.0024 nM
- IC50 ([4]; HCV replicon 1B): 0.0024 nM
- IC50 [5, 8]: 0.744 nM

Compound: CCc1ccc(C2Oc3cc(-c4cnc([C@@H]5CCCN5C(=O)[C@@H](NC(=O)OC)C(C)C)[nH]4)cc(C)c3-c3cc4cc(-c5cnc([C@@H]6CCCN6C(=O)C(NC(=O)OC)C6C[C@@H](C)O[C@H](C)C6)[nH]5)ccc4n32)s1 (single isomer, unassigned) [Compound 545]
- IC50 [1, 6]: 0.024 nM
- IC50 [2, 7]: 0.00645 nM
- IC50 ([3]; HCV replicon 1A): 0.00355 nM
- IC50 [4, 9]: 0.00598 nM
- IC50 [5, 10]: 0.11 nM

Compound: COC(=O)NC(C(=O)N1CCC[C@H]1c1ncc(-c2cc(F)c3c(c2)OC(c2ccc(C4CC4)s2)n2c-3cc3cc(-c4cnc([C@@H]5CCCN5C(=O)C(NC(=O)OC)C5C[C@@H](C)O[C@@H](C)C5)[nH]4)ccc32)[nH]1)C1C[C@@H](C)O[C@@H](C)C1 (single isomer, unassigned) [Compound 301]
- IC50 [1, 11]: 0.11 nM
- IC50 [2, 12]: 0.037 nM
- IC50 ([3]; replicon 1A): 0.0025 nM
- IC50 ([4]; Hepatitis C virus, replicon 1B): 0.002 nM
- IC50 [5, 13]: 0.33 nM

Compound: CCc1ccc(C2Oc3cc(-c4cnc([C@@H]5CCCN5C(=O)[C@@H](NC(=O)OC)C(C)C)[nH]4)ccc3-c3c(F)c4cc(-c5cnc([C@@H]6CCCN6C(=O)C(NC(=O)OC)C6C[C@@H](C)O[C@@H](C)C6)[nH]5)ccc4n32)s1 (single isomer, unassigned) [Compound 634]
- IC50 [1, 6]: 0.0149 nM
- IC50 [2, 7]: 0.027 nM
- IC50 ([3]; HCV replicon 1A): 0.0023 nM
- IC50 [4, 9]: 0.0015 nM
- IC50 [5, 8]: 0.237 nM

Compound: COC(=O)NC(C(=O)N1CCC[C@H]1c1ncc(-c2ccc3c(c2)cc2n3C(c3ccc(C4CC4)s3)Oc3cc(-c4cnc([C@@H]5CCCN5C(=O)[C@@H](NC(=O)OC)C5CCOCC5)[nH]4)cc(F)c3-2)[nH]1)C(C)(C)F (single isomer, unassigned) [Compound 172]
- IC50 [1, 11]: 0.004 nM
- IC50 ([2]; read-out: 2B IC50, replicon 2B): 0.005 nM
- IC50 ([3]; replicon 1A): 0.0015 nM
- IC50 ([4]; Hepatitis C virus, replicon 1B): 0.0018 nM
- IC50 [5, 14]: 0.018 nM

Compound: COC(=O)NC(C(=O)N1CCC[C@H]1c1ncc(-c2ccc3c(c2)cc2n3C(c3ccc(CC4CC4)s3)Oc3cc(-c4cnc([C@@H]5CCCN5C(=O)[C@@H](NC(=O)OC)C(C)C)[nH]4)cc(F)c3-2)[nH]1)C1CCO[C@H](C)C1 (single isomer, unassigned) [Compound 367]
- IC50 [1, 11]: 0.0343 nM
- IC50 ([2]; read-out: 2B IC50, replicon 2B): 0.0223 nM
- IC50 ([3]; Hepatitis C virus, replicon 1A): 0.0021 nM
- IC50 ([4]; Hepatitis C virus, replicon 1B): 0.0034 nM
- IC50 [5, 14]: 0.361 nM

Compound: COC(=O)NC(C(=O)N1CCC[C@H]1c1ncc(-c2cc(F)c3c(c2)OC(c2ccc(C4CCC4)s2)n2c-3cc3cc(-c4cnc([C@@H]5CCCN5C(=O)[C@@H](NC(=O)OC)C5CCOCC5)[nH]4)ccc32)[nH]1)C(C)(C)F (single isomer, unassigned) [Compound 251]
- IC50 [1, 11]: 0.06 nM
- IC50 ([2]; read-out: 2B IC50, replicon 2B): 0.1 nM
- IC50 ([3]; replicon 1A): 0.0012 nM
- IC50 ([4]; replicon 1B): 0.0025 nM
- IC50 [5, 14]: 0.4 nM

Compound: CCCc1ccc(C2Oc3cc(-c4cnc([C@@H]5CCCN5C(=O)[C@@H](NC(=O)OC)C(C)C)[nH]4)cc(F)c3-c3cc4cc(-c5cnc([C@@H]6CCCN6C(=O)[C@@H](NC(=O)OC)C6CCOCC6)[nH]5)ccc4n32)s1 (single isomer, unassigned) [Compound 346]
- IC50 [1, 11]: 0.0414 nM
- IC50 ([2]; read-out: 2B IC50, replicon 2B): 0.0374 nM
- IC50 ([3]; Hepatitis C virus, replicon 1A): 0.001 nM
- IC50 ([4]; Hepatitis C virus, replicon 1B): 0.0013 nM
- IC50 [5, 14]: 0.223 nM

Compound: COC(=O)NC(C(=O)N1[C@@H]2C[C@@H]2C[C@H]1c1ncc(-c2ccc3c(c2)c(F)c2n3C(c3ccc(C4CC4)s3)Oc3cc(-c4cnc([C@@H]5CCCN5C(=O)[C@@H](NC(=O)OC)C(C)C)[nH]4)ccc3-2)[nH]1)C1C[C@@H](C)O[C@@H](C)C1 (single isomer, unassigned) [Compound 645]
- IC50 [1, 6]: 0.0222 nM
- IC50 [2, 7]: 0.0686 nM
- IC50 ([3]; HCV replicon 1A): 0.0026 nM
- IC50 ([4]; HCV replicon 1B): 0.0024 nM
- IC50 [5, 8]: 0.25 nM

Compound: COC(=O)N[C@H](C(=O)N1CCC[C@H]1c1ncc(-c2cc(F)c3c(c2)OC(c2ccc(C(C)C)s2)n2c-3cc3cc(-c4cnc([C@@H]5CCCN5C(=O)[C@@H](NC(=O)OC)C(C)C)[nH]4)ccc32)[nH]1)C(C)C (single isomer, unassigned) [Compound 35]
- IC50 [1, 15]: 0.62 nM
- IC50 [2, 12]: 1.43 nM
- IC50 ([3]; Hepatitis C virus, replicon 1A): 0.0017 nM
- IC50 ([4]; Hepatitis C virus, replicon 1B): 0.0014 nM
- IC50 [5, 13]: 11.5 nM

Compound: COC(=O)NC(C(=O)N1CCC[C@H]1c1ncc(-c2ccc3c(c2)cc2n3C(c3ccc(C4CC4)s3)Oc3cc(-c4cnc([C@@H]5CCCN5C(=O)[C@@H](NC(=O)OC)C(C)C)[nH]4)cc(F)c3-2)[nH]1)C1CCCCO1 (single isomer, unassigned) [Compound 343]
- IC50 [1, 11]: 0.37 nM
- IC50 ([2]; read-out: 2B IC50, replicon 2B): 0.829 nM
- IC50 ([3]; replicon 1A): 0.001 nM
- IC50 ([4]; replicon 1B): 0.0023 nM
- IC50 [5, 14]: 0.704 nM

Compound: CCc1ccc(C2Oc3cc(-c4cnc([C@@H]5CCCN5C(=O)[C@@H](NC(=O)OC)C(C)C)[nH]4)cc(F)c3-c3cc4cc(-c5cnc([C@@H]6C[C@@H](F)CN6C(=O)C(NC(=O)OC)C6CCOC(C)(C)C6)[nH]5)ccc4n32)s1 (single isomer, unassigned) [Compound 258]
- IC50 [1, 11]: 0.004 nM
- IC50 ([2]; read-out: 2B IC50, replicon 2B): 0.43 nM
- IC50 ([3]; replicon 1A): 0.0018 nM
- IC50 ([4]; Hepatitis C virus, replicon 1B): 0.0027 nM
- IC50 [5, 14]: 1.2 nM

Compound: CCCc1ccc(C2Oc3cc(-c4cnc([C@@H]5CCCN5C(=O)[C@@H](NC(=O)OC)C(C)C)[nH]4)cc(F)c3-c3cc4cc(-c5cnc([C@@H]6CCCN6C(=O)[C@@H](NC(=O)OC)C6CCOCC6)[nH]5)ccc4n32)s1 (single isomer, unassigned) [Compound 347]
- IC50 [1, 11]: 0.0023 nM
- IC50 ([2]; read-out: 2B IC50, replicon 2B): 0.0028 nM
- IC50 ([3]; replicon 1A): 0.0019 nM
- IC50 ([4]; replicon 1B): 0.0026 nM
- IC50 [5, 14]: 0.0129 nM

Compound: COC(=O)N[C@H](C(=O)N1CCC[C@H]1c1ncc(-c2cc(C)c3c(c2)OC(c2cc4c(s2)CCC4)n2c-3cc3cc(-c4cnc([C@@H]5CCCN5C(=O)[C@@H](NC(=O)OC)C5C[C@@H](C)O[C@@H](C)C5)[nH]4)ccc32)[nH]1)C(C)C (single isomer, unassigned) [Compound 548]
- IC50 [1, 6]: 0.0658 nM
- IC50 [2, 7]: 0.0231 nM
- IC50 ([3]; HCV replicon 1A): 0.00758 nM
- IC50 [4, 9]: 0.00968 nM
- IC50 [5, 10]: 1.4 nM

Compound: COC(=O)NC(C(=O)N1CCC[C@H]1c1ncc(-c2cc(F)c3c(c2)OC(c2ccc(C4CCC4)s2)n2c-3cc3cc(-c4cnc([C@@H]5CCCN5C(=O)[C@@H](NC(=O)OC)C5CCOCC5)[nH]4)ccc32)[nH]1)C(C)(C)F (single isomer, unassigned) [Compound 248]
- IC50 [1, 11]: 0.11 nM
- IC50 ([2]; read-out: 2B IC50, replicon 2B): 0.076 nM
- IC50 ([3]; replicon 1A): 0.0025 nM
- IC50 ([4]; Hepatitis C virus, replicon 1B): 0.0032 nM
- IC50 [5, 13]: 0.43 nM

Compound: COC(=O)NC(C(=O)N1[C@@H]2C[C@@H]2C[C@H]1c1ncc(-c2ccc3c(c2)c(F)c2n3C(c3ccc(C4CC4)s3)Oc3cc(-c4cnc([C@@H]5CCCN5C(=O)[C@@H](NC(=O)OC)C(C)C)[nH]4)ccc3-2)[nH]1)C1C[C@@H](C)O[C@@H](C)C1 (single isomer, unassigned) [Compound 644]
- IC50 [1, 6]: 0.005 nM
- IC50 [2, 7]: 0.0272 nM
- IC50 ([3]; HCV replicon 1A): 0.00257 nM
- IC50 [4, 9]: 0.0013 nM
- IC50 [5, 8]: 0.0889 nM

Compound: COC(=O)N[C@H](C(=O)N1CCC[C@H]1c1ncc(-c2ccc3c(c2)OC(c2ccc(C4CC4)s2)n2c-3cc3cc(-c4cnc([C@@H]5CCCN5C(=O)[C@@H](NC(=O)OC)C(C)C)[nH]4)ccc32)[nH]1)C(C)C (stereo partly shown) [Compound 2]
- IC50 [1, 15]: 0.032 nM
- IC50 [2, 12]: 0.033 nM
- IC50 ([3]; Hepatitis C virus, replicon 1A): 0.0029 nM
- IC50 ([4]; Hepatitis C virus, replicon 1B): 0.0024 nM
- IC50 [5, 13]: 0.1 nM

Compound: COC(=O)N[C@H](C(=O)N1CCC[C@H]1c1ncc(-c2ccc3c(c2)OC(c2ccc(C4CC4)s2)n2c-3c(F)c3cc(-c4cnc([C@@H]5C[C@H]6C[C@H]6N5C(=O)[C@@H](NC(=O)OC)C(C)C)[nH]4)ccc32)[nH]1)C(C)C (single isomer, unassigned) [Compound 611]
- IC50 [1, 6]: 0.0115 nM
- IC50 [2, 7]: 0.183 nM
- IC50 ([3]; Hepatitis C virus, HCV replicon 1A): 0.0019 nM
- IC50 [4, 9]: 0.0014 nM
- IC50 [5, 8]: 0.443 nM

Compound: COC(=O)N[C@H](C(=O)N1CCC[C@H]1c1ncc(-c2ccc3c(c2)cc2n3C(c3ccc(C4CC4)s3)Oc3cc(-c4cnc([C@@H]5CCCN5C(=O)[C@@H](NC(=O)OC)C5CCOCC5)[nH]4)cc(C)c3-2)[nH]1)C(C)C (single isomer, unassigned) [Compound 123]
- IC50 [1, 11]: 0.59 nM
- IC50 ([2]; read-out: 2B IC50, replicon 2B): 0.064 nM
- IC50 ([3]; replicon 1A): 0.0012 nM
- IC50 ([4]; replicon 1B): 0.0031 nM
- IC50 [5, 14]: 0.38 nM

Compound: COC(=O)NC(C(=O)N1CCC[C@H]1c1ncc(-c2ccc3c(c2)cc2n3C(c3ccc(C4CC4)s3)Oc3cc(-c4cnc([C@@H]5C[C@H]6C[C@H]6N5C(=O)[C@@H](NC(=O)OC)C(C)C)[nH]4)cc(F)c3-2)[nH]1)C1C[C@@H](C)O[C@@H](C)C1 (single isomer, unassigned) [Compound 538]
- IC50 [1, 6]: 0.00703 nM
- IC50 [2, 7]: 0.0513 nM
- IC50 ([3]; HCV replicon 1A): 0.0047 nM
- IC50 [4, 9]: 0.00326 nM
- IC50 [5, 10]: 0.136 nM

From patent US20160257697A1, “THIOPHENE-SUBSTITUTED TETRACYCLIC COMPOUNDS AND METHODS OFUSE THEREOF FOR THE TREATMENT OF VIRAL DISEASES” (priority 2013, published 2016)
